Source: US6875760B2 (Novo Nordisk A/S, priority 1999, dated 2005)

Target: T1, cloned human glucagon receptor (Homo sapiens, UniProt P47871)
T1 construct: expressed in transfected cells; plasma membrane preparation
Assay: Glucagon Binding Assay (II)
Details: plasma membranes of BHK cells expressing the receptor; read-out: Glu Bd Assay (II) IC50

T1 sequence (P47871 26-477): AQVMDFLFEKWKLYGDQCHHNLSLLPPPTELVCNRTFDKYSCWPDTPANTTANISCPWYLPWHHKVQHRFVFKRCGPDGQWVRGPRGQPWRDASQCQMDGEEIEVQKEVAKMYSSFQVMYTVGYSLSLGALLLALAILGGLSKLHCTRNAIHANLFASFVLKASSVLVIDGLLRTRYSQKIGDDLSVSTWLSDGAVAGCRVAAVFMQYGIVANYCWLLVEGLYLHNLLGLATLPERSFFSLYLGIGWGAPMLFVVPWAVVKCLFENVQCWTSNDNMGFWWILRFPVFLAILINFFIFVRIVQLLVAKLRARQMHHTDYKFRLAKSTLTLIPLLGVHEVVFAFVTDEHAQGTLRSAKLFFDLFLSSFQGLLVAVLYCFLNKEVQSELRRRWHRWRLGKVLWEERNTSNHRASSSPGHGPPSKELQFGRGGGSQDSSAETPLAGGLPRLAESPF

| Structure (SMILES) | IC50 |
| --- | --- |
| O=C(Nc1nn[nH]n1)c1ccc(CN(C(=O)Nc2cc(Cl)cc(Cl)c2)c2ccc(C3=CCCCC3)cc2)cc1 [Example 593, 4-[1-(4-Cyclohex-1-enylphenyl)-3-(3,5-dichlorophenyl)ureidomethyl]-N-(2H-tetrazol-5-yl)benzamide] | 0.008 µM |
| CC(C)(C)C1CCC(N(Cc2ccc(C(=O)NCCc3nnn[nH]3)cc2)C(=O)Nc2ccc(OC(F)(F)F)cc2)CC1 (stereo not drawn) [Example 156, 4-[1-(4-tert-Butylcyclohexyl)-3-(4-trifluoromethoxyphenyl)ureidomethyl]-N-[2-(1H-tetrazol-5-yl)ethyl]benzamide] | 0.146 µM |
| CC(C)(C)C1CCC(N(Cc2ccc(C(=O)NCCC(=O)O)cn2)C(=O)Nc2ccc(OC(F)(F)F)cc2)CC1 (stereo not drawn) [Example 612, 3-({6-[1-(4-tert-Butylcyclohexyl)-3-(4-trifluoromethoxyphenyl)ureidomethyl]pyridine-3-carbonyl}amino)propionic acid] | 0.161 µM |
| C[C@@H](NC(=O)N(Cc1ccc(C(=O)NCCC(=O)O)cc1)c1ccc(C2CCCCC2)cc1)c1ccccc1 [Example 608, 3-{4-[1-(4-Cyclohexylphenyl)-3-((1R)-1-phenylethyl)ureidomethyl]benzoylamino}propionic acid] | 0.677 µM |
| CC(C)(C)C1CCC(N(Cc2ccc(C(=O)NCCC(=O)O)cc2)C(=O)Nc2cc(C(F)(F)F)cc(C(F)(F)F)c2)CC1 (stereo not drawn) | 0.01 µM |
| O=C(O)CCNC(=O)c1ccc(CN(C(=O)Nc2cc(Cl)cc(Cl)c2)C2Cc3ccccc3C2)cc1 [Example 138, 3-{4-[1-Indan-2-yl-3-(3,5-dichlorophenyl)ureidomethyl]benzoylamino}propionic acid] | 0.637 µM |
| C[C@H](C1CCCCC1)N(Cc1ccc(C(=O)NCCC(=O)O)cc1)C(=O)Nc1ccc2ccccc2c1 [Example 109, 3-{4-[1-((1R)-1-Cyclohexylethyl)-3-naphthalene-2-ylureidomethyl]benzoylamino)propionic acid] | 0.916 µM |

Continued, values first:

| IC50 | Structure (SMILES) |
| --- | --- |
| 0.874 µM | CC(C)(C)[C@H]1CC[C@H](N(Cc2ccc(C(=O)NCCC(=O)O)cc2)C(=O)c2ccc(OC(F)(F)F)cc2)CC1 [Example 586, 3-(4-{[(trans-4-tert-Butylcyclohexyl)-(4-trifluoromethoxybenzoyl)amino]methyl}benzoylamino)propionic acid] |
| 0.726 µM | C[C@H](NC(=O)N(Cc1ccc(C(=O)NCCC(=O)O)cc1)c1ccc(C2CCCCC2)cc1)c1ccccc1 [Example 609, 3-{4-[1-(4-Cyclohexylphenyl)-3-((1S)-1-phenylethyl)ureidomethyl]benzoylamino}propionic acid] |
| 0.687 µM | CC(C)(C)C1CCC(N(Cc2ccc(C(=O)NCCC(=O)O)cc2)C(=O)CNC(=O)OCC2c3ccccc3-c3ccccc32)CC1 (stereo not drawn) |
| 0.015 µM | O=C(Nc1nn[nH]n1)c1ccc(CN(C(=O)Nc2ccc(OC(F)(F)F)cc2)[C@H]2CC[C@@H](C3CCCCC3)CC2)cc1 [Example 575, 4-[1-(4-cis-Cyclohexylcyclohexyl)-3-(4-trifluoromethoxyphenyl)ureidomethyl]-N-(2H-tetrazol-5-yl)benzamide] |
| 0.322 µM | O=C(Nc1nn[nH]n1)c1ccc(CN(Cc2cccc(Cl)c2)c2ccc(C3CCCCC3)cc2)cc1 [Example 585, 4-{[(3-Chlorobenzyl)-(4-cyclohexylphenyl)amino]methyl}-N-(2H-tetrazol-5-yl)benzamide] |

Same assay, conditions: screened at 1 μM; library compounds; read-out: displacement of the glucagon tracer when screened at 1 μM concentration in the glucagon binding assay II

| Structure (SMILES) | inhibition at 1 µM |
| --- | --- |
| O=C(O)CCNC(=O)c1ccc(CN(C(=O)Nc2ccc(Cl)c(C(F)(F)F)c2)c2ccc3nc(S)sc3c2)cc1 [Example 183, 3-{4-[3-(4-Chloro-3-trifluoromethylphenyl)-1-(2-mercaptobenzothiazol-6-yl)ureidomethyl]benzoylamino}propionic acid] | > 50% |
| CCCCc1ccc(NC(=O)N(Cc2ccc(C(=O)NCCC(=O)O)cc2)Cc2ccc(C(F)(F)F)cc2)cc1 [Example 118, 3-{4-[1-(4-Trifluoromethylbenzyl)-3-(4-butylphenyl)ureidomethyl]benzoylamino)propionic acid] | > 50% |
| CN1C(=O)c2ccc(NC(=O)N(Cc3ccc(C(=O)NCCC(=O)O)cc3)C3CCC(C(C)(C)C)CC3)cc2C1=O (stereo not drawn) [Example 209, 3-{4-[1-(4-tert-Butylcyclohexyl)-3-(2-methyl-1,3-dioxo-2,3-dihydro-1H-isoindol-5-yl)ureidomethyl]benzoylamino}propionic acid] | > 50% |
| O=C(O)CCNC(=O)c1ccc(CN(CCC(c2ccccc2)c2ccccc2)Cc2ccc(C(F)(F)F)cc2)cc1 [Example 141, 3-(4-{[(3,3-Diphenylpropyl)-(4-trifluoromethylbenzyl)amino]methyl}benzoylamino)propionic acid] | > 50% |
| O=C(O)CCCOc1ccc(CN(C(=O)Nc2ccc(Cl)c(C(F)(F)F)c2)C2C[C@H]2c2ccccc2)cc1 (stereo in doubt) [Example 223, 4-{4-[3-(4-Chloro-3-trifluoromethylphenyl)-1-(2-phenylcyclopropyl)ureidomethyl]phenoxy}butyric acid] | > 50% |
| CCCCc1ccc(NC(=O)N(Cc2ccc(C(=O)NCCC(=O)O)cc2)Cc2ccccc2OC(F)(F)F)cc1 [Example 116, 3-{4-[1-(2-Trifluoromethoxybenzyl)-3-(4-butylphenyl)ureidomethyl]benzoylamino)propionic acid] | > 50% |
| O=C(O)CCNC(=O)c1ccc(CN(CCc2cccc(Cl)c2)C(=O)Nc2ccc(Cl)c(C(F)(F)F)c2)cc1 [Example 181, 3-{4-[1-[2-(3-Chlorophenyl)ethyl]-3-(4-chloro-3-trifluoromethylphenyl)ureidomethyl]benzoylamino}propionic acid] | > 50% |
| CCCCOc1ccc(NC(=O)N(Cc2ccc(C(=O)NCCC(=O)O)s2)Cc2ccccc2OC(F)(F)F)cc1 [Example 125, 3-{5-[1-(2-Trifluoromethoxybenzyl)-3-(4-butoxyphenyl)ureidomethyl]thiophene-2-carbonylamino)propionic acid] | > 50% |
| CC(C)(C)C1CCC(N(Cc2ccc(C(=O)Nc3ncnc4[nH]ncc34)cc2)C(=O)Nc2ccc(OC(F)(F)F)cc2)CC1 (stereo not drawn) [Example 165, 4-[1-(4-tert-Butylcyclohexyl)-3-(4-trifluoromethoxyphenyl)ureidomethyl]-N-(1H-pyrazolo[3,4-d]pyrimidin-4-yl)benzamide] | > 50% |
| Cc1cc(C)cc(NC(=O)N(Cc2ccc(OCCCC(=O)O)cc2)c2ccc(C3CCCCC3)cc2)c1 [Example 219, 4-{4-[1-(4-Cyclohexylphenyl)-3-(3,5-dimethylphenyl)ureidomethyl]phenoxy}butyric acid] | > 50% |
| CC(C)(C)C1CCC(N(Cc2ccc(C(=O)Nc3ccc4c(c3)C(=O)NC4=O)cc2)C(=O)Nc2cc(Cl)cc(Cl)c2)CC1 (stereo not drawn) [Example 171, 4-[1-(4-tert-Butylcyclohexyl)-3-(3,5-dichlorophenyl)ureidomethyl]-N-(1,3-dioxo-2,3-dihydro-1H-isoindol-5-yl)benzamide] | > 50% |
| CC(=O)N1CCc2cc(N(Cc3ccc(C(=O)NCCC(=O)O)cc3)C(=O)Nc3ccc(Cl)c(C(F)(F)F)c3)ccc21 [Example 194, 3-{4-[1-(1-Acetyl-2,3-dihydro-1H-indol-5-yl)-3-(4-chloro-3-trifluoromethylphenyl)ureidomethyl]benzoylamino}propionic acid] | > 50% |
| CC1CCCCN1CCCN(Cc1ccc(C(=O)NCCC(=O)O)cc1)C(=O)Nc1ccc(Cl)c(C(F)(F)F)c1 (stereo not drawn) [Example 193, 3-(4-{3-(4-Chloro-3-trifluoromethylphenyl)-1-[3-(2-methylpiperidin-1-yl)propyl]ureidomethyl}benzoylamino)propionic acid] | > 50% |
| O=C(O)CCNC(=O)c1ccc(CN(C(=O)Nc2ccc(C(=O)O)cc2)c2ccc3c(c2)OCO3)cc1 [Example 184, 4-{3-(Benzo[1,3]dioxo-5-yl)-3-[4-(2-carboxyethylcarbamoyl)benzyl]ureido}benzoic acid] | > 50% |

Other lines, results leading:

| inhibition at 1 µM | Structure (SMILES) |
| --- | --- |
| > 50% | CC(C)(C)C1CCC(N(Cc2ccc(C(=O)Nc3ccc(O)c([N+](=O)[O-])c3)cc2)C(=O)Nc2ccc(Cl)cc2)CC1 (stereo not drawn) [Example 162, 4-[1-(4-tert-Butylcyclohexyl)-3-(4-chlorophenyl)ureidomethyl]-N-(4-hydroxy-3-nitrophenyl)benzamide] |
| > 50% | CC(C)(C)C1CCC(N(Cc2ccc(C(=O)Nc3ccc4c(c3)OCCO4)cc2)C(=O)Nc2ccc(OC(F)(F)F)cc2)CC1 (stereo not drawn) [Example 161, 4-[1-(4-tert-Butylcyclohexyl)-3-(4-trifluoromethoxyphenyl)ureidomethyl]-N-(2,3-dihydro-1,4-benzodioxin-6-yl)benzamide] |
| > 50% | Cc1cc(C)cc(NC(=O)N(Cc2ccc(C(=O)NCCC(=O)O)cc2)C2CCC(C(C)(C)C)CC2)c1 (stereo not drawn) [Example 197, 3-{4-[1-(4-tert-Butylcyclohexyl)-3-(3,5-dimethylphenyl)ureidomethyl]benzoylamino}propionic acid] |
| > 50% | O=C(O)CCNC(=O)c1ccc(CN(C(=O)Nc2cccc(SC(F)(F)F)c2)c2ccc(C3CCCCC3)cc2)cc1 [Example 202, 3-{4-[1-(4-Cyclohexylphenyl)-3-(3-trifluoromethylsulfanylphenyl)ureidomethyl]benzoylamino}propionic acid] |
| > 50% | CC(C)(C)C1CCC(N(Cc2cccc(C(=O)NCCC(=O)O)c2)C(=O)Nc2cc(Cl)cc(Cl)c2)CC1 (stereo not drawn) [Example 135, 3-{3-[1-(4-tert-Butylcyclohexyl)-3-(3,5-dichlorophenyl)ureidomethyl]benzoylamino)propionic acid] |
| > 50% | O=C(O)CCCOc1ccc(CN(C(=O)Nc2cc(C(=O)O)cc(C(=O)O)c2)c2ccc(C3CCCCC3)cc2)cc1 [Example 220, 5-[3-[4-(3-Carboxypropoxy)benzyl]-3-(4-cyclohexylphenyl)ureido]isophthalic acid] |
| > 50% | O=C(O)CCNC(=O)c1ccc(CN(C(=O)Nc2ccc(OC(F)(F)F)cc2)c2ccc3nc(S)sc3c2)cc1 [Example 182, 3-{4-[1-(2-Mercaptobenzothiazol-6-yl)-3-(4-trifluoromethoxyphenyl)ureidomethyl]benzoylamino}propionic acid] |
